Paper PMC12340956, “Tranylcypromine-Based LSD1 Inhibitors as Useful Agents to Reduce Viability of” (ACS Infectious Diseases, 2025)
Where two headings read alike, the source gives them in different places.

Experiments:
[1] = target: T1, human LSD1-CoREST complex (Homo sapiens, UniProt O60341); assay: Spectrophotometric analysis of flavin cofactor bleaching; type: biochemical
T1 construct: made in house

[2] = target: T1, human LSD1-CoREST complex; assay: ThermoFAD thermal stability assay; type: binding; conditions: for ΔTm: LSD1-CoREST thermal stability
Method: Compounds 14–22 were tested against the human LSD1-CoREST complex to determine their inhibitory activity. […] ThermoFAD assays were then performed to assess the impact of 14–22 on the thermal stability (ΔT m values, Table ) of the LSD1-CoREST complex. The most significant shifts in Tm values corresponded to the strongest binders. […] Compound 22 was not tested, considering its previous negative results.
Protein expression, thermal stability, and inhibition of human LSD1-CoREST were performed using established protocols. […] LSD1-CoREST (0.4 μM) was preincubated with the inhibitor at 25 °C for 10 min in the presence of 5% DMSO. The reaction was initiated by adding an equal volume of the substrate solution to the enzyme–inhibitor mixture, and resorufin fluorescence (excitation at 530–570 nm and emission at 580–590 nm) was detected with a Clariostar plate reader.

[3] = target: T1, human LSD1-CoREST complex; assay: HRP-coupled LSD1 inhibition assay; type: biochemical; conditions: 10 min preincubation; for IC50: read-out: IC50 (hLSD1 direct inhibition)
Method: Protein expression, thermal stability, and inhibition of human LSD1-CoREST were performed using established protocols. […] The reaction was initiated by adding an equal volume of the substrate solution to the enzyme–inhibitor mixture, and resorufin fluorescence (excitation at 530–570 nm and emission at 580–590 nm) was detected with a Clariostar plate reader.

[4] = MTT cytotoxicity in MRC-5 cells; type: cell-based; conditions: human, MRC-5 lung diploid fibroblast cells; for viability at 72 h, 5 µM / viability at 72 h, 10 µM / viability at 72 h, 25 µM / viability at 72 h, 50 µM: read-out: percentage of viability, 72 h; for IC50 at 72 h: read-out: IC50 (cell viability)
Method: (§1) The MTT method was used to evaluate cell viability after 72 h of treatment.
(§2) Human commercial lung diploid fibroblasts (MRC-5), and diploid retinal epithelium cells (RPE) were obtained from the American Type Culture Collection (ATCC) and kindly provided by Dr Francesca Degrassi (CNR IBPM) and maintained in minimal essential medium or DMEM-F12 medium supplemented with fetal calf serum, antibiotics, and nonessential amino acids. Cells were grown at 37 °C, in a humidified atmosphere, with 5% CO2. For experiments, cells were seeded in 200 μL of complete in each well of a 96-well microtiter plate. After 24 h, compounds were added at 5, 10, 25, and 50 μM for 72 h in sextuplicate. MTT was added (0.5 mg/mL), incubated for 4 h at 37 °C, and dissolved in 200 μL of isopropyl alcohol. Absorbance was measured at 570 nm (ELISA reader, DASIT), and cell viability was calculated as viability=(ODoftreatedcells/ODofcontrolcells)×100

adult worms [5] = assay: Pairing and egg laying of adult worms; type: cell-based, Schistosoma mansoni; conditions: for eggs' number: 20 μM; for effect on worm pairing: adult worms
Method: Selected compounds 2, 15, 18, and 19 were tested on adult worms to evaluate their effects on pairing and egg laying.

[6] = MTT cytotoxicity in RPE cells; type: cell-based; conditions: human, retinal pigment epithelial (RPE) cells; for viability at 72 h, 5 µM / viability at 72 h, 10 µM / viability at 72 h, 25 µM / viability at 72 h, 50 µM: read-out: percentage of viability, 72 h; for IC50 at 72 h: read-out: IC50 (cell viability)
Method: as §1, §2

adult worms [7] = assay: Adult worm viability phenotypic assay, 72 h; conditions: Schistosoma mansoni, read-out: IC50 (adult worm viability)
Method: The life cycle is maintained at the Swiss TPH as described previously. Cercariae were obtained from infected snails by exposing them to a strong light source for 3–4 h in pond water.
For NTS and adult worms, transparent flat-bottom 96- and 24-well plates were used, respectively (Sarstedt, Switzerland). For juvenile worms, 48-well plates were used with 3–6 worms per plate and RPMI medium with 5% FCS and 1% penicillin/streptomycin. Compounds were initially tested at 20 and 10 μM in triplicate on NTS and repeated once; each well contained 30–40 NTS. Phenotypic reference points such as motility, morphology, and granularity were used to score incubated parasites’ overall viability (scores from 0 to 3). […] Identified hits from the NTS screening were tested on adult worms. […] The experiment was conducted in duplicate and repeated; standard deviations were calculated from two wells. […] For all in vitro assays, negative controls (DMSO at the highest tested concentration) were included.

[8] = tested on: S. mansoni juvenile forms; assay: Speed-of-action assay in juvenile forms; type: cell-based, Schistosoma mansoni; conditions: for IC50: Schistosoma mansoni, read-out: IC50 (speed of action, juvenile forms); for Percentage of effect: juvenile forms
Description: (§3) To better characterize a selection of our LSD1i in vitro, we assessed the onset of their action, defined as the time required for an observable antischistosomal effect. […] For detailed percentages of activity at each time point, refer to the Supporting Information (Tables S2 and S3 in Supporting Information).

[9] = tested on: newly transformed schistosomula (NTS); assay: NTS viability phenotypic screening, 72 h; conditions: for IC50: Schistosoma mansoni, read-out: IC50 (NTS viability)
NTS = assay: Speed-of-action assay in NTS; type: cell-based, Schistosoma mansoni; conditions: for Percentage of effect: NTS; for IC50: Schistosoma mansoni, read-out: IC50 (speed of action, NTS)
Description: as §3

For `CC#Cc1ccc(C(=O)Nc2cccc(C3CC3N)c2)cc1.Cl` (centres unmarked) [Compound 21, N-(3-(2-Aminocyclopropyl)phenyl)-4-(prop-1-yn-1-yl)benzamide Hydrochloride], the “bleaching of the flavin cofactor” value [1] was “no bleaching”, the “thermal shift compared to the control” value [2] was “no thermal shift” and the ΔTm [2] was 0 °C. The “IC50 (hLSD1 direct inhibition)” value [3] was “inactive” and the IC50 [3] was > 100 µM.
`Cl.NC1CC1c1ccc(NC(=O)c2ccc(C#CC3CC3)cc2)cc1` (centres unmarked) [Compound 19, N-(4-(2-Aminocyclopropyl)phenyl)-4-(cyclopropylethynyl)benzamide Hydrochloride] gave a viability at 72 h, 5 µM [4] of 98 ± 20%, a viability at 72 h, 10 µM [4] of 88 ± 18% and a viability at 72 h, 25 µM [4] of 85 ± 8%. For the same compound, the viability at 72 h, 50 µM [4] was 85 ± 35%, the IC50 at 72 h [4] was > 100 µM and the “eggs' number” value (adult worms [5]; 4 h) was 0. For the same compound, the “eggs' number” value (adult worms [5]; 8 h) was 0, the “eggs' number” value (adult worms [5]; 24 h) was 0 and the “eggs' number” value (adult worms [5]; 48 h) was 0. The “eggs' number” value (adult worms [5]; 72 h) was 5, the “effect on worm pairing” value (adult worms [5]) was “no impact on worm pairing” and the viability at 72 h, 5 µM [6] was 92 ± 26%. For the same compound, the viability at 72 h, 10 µM [6] was 89 ± 35%, the viability at 72 h, 25 µM [6] was 98 ± 21% and the viability at 72 h, 50 µM [6] was 103 ± 20%. For the same compound, the IC50 at 72 h [6] was > 100 µM, the IC50 (adult worms [7]) was > 10 µM and the IC50 ([8]; 4 h) was > 20 µM. For the same compound, the IC50 ([8]; 24 h) was > 20 µM, the IC50 ([8]; 48 h) was > 20 µM and the IC50 ([8]; 72 h) was 2.7 µM. It also gave a Percentage of effect ([8]; 4 h, 1 μM) of 20%, a Percentage of effect ([8]; 4 h, 10 μM) of 20% and a Percentage of effect ([8]; 4 h, 20 μM) of 41.82%. The Percentage of effect ([8]; 24 h, 1 μM) was 27.59%, the Percentage of effect ([8]; 24 h, 10 μM) was 34.48% and the Percentage of effect ([8]; 24 h, 20 μM) was 40.38%. The Percentage of effect ([8]; 48 h, 1 μM) was 36.54%, the Percentage of effect ([8]; 48 h, 10 μM) was 46.15% and the Percentage of effect ([8]; 48 h, 20 μM) was 47.92%. For the same compound, the Percentage of effect ([8]; 72 h, 1 μM) was 43.03%, the Percentage of effect ([8]; 72 h, 10 μM) was 46.73% and the Percentage of effect ([8]; 72 h, 20 μM) was 81.25%. The ΔTm [2] was “+8 °C”, the “Percentage of reduction of NTS viability, 72 h” value (shortened to “Percentage of reduction … 72 h”) ([9]; 1 μM) was 22.6 ± 1.9% and the “Percentage of reduction … 72 h” value ([9]; 10 μM) was 100 ± 0.0%. The “Percentage of reduction … 72 h” value ([9]; 20 μM) was 100 ± 0.0%, the IC50 [9] was 1.27 µM and the Percentage of effect (NTS; 4 h, 10 μM) was 30.77%. For the same compound, the Percentage of effect (NTS; 4 h, 20 μM) was 38.46%, the Percentage of effect (NTS; 24 h, 10 μM) was 48.21% and the Percentage of effect (NTS; 24 h, 20 μM) was 78.57%. The Percentage of effect (NTS; 48 h, 10 μM) was 87.76%, the Percentage of effect (NTS; 48 h, 20 μM) was 100% and the Percentage of effect (NTS; 72 h, 10 μM) was 93.88%. The Percentage of effect (NTS; 72 h, 20 μM) was 100%, the IC50 (NTS; 4 h) was > 20 µM and the IC50 (NTS; 24 h) was 10.4 µM. The IC50 (NTS; 48 h) was 8.3 µM, the IC50 (NTS; 72 h) was 7.5 µM and the IC50 [3] was 0.02 ± 0.001 µM.
`CCCc1ccc(C(=O)Nc2ccc(C3CC3N)cc2)cc1.Cl` (centres unmarked) [Compound 15, N-(4-(2-Aminocyclopropyl)phenyl)-4-propylbenzamide Hydrochloride] showed a viability at 72 h, 5 µM [4] of 81 ± 16%, a viability at 72 h, 10 µM [4] of 91 ± 20% and a viability at 72 h, 25 µM [4] of 89 ± 17%. The viability at 72 h, 50 µM [4] was 92 ± 20%, the IC50 at 72 h [4] was > 100 µM and the “eggs' number” value (adult worms [5]; 4 h) was 0. For the same compound, the “eggs' number” value (adult worms [5]; 8 h) was 0, the “eggs' number” value (adult worms [5]; 24 h) was 0 and the “eggs' number” value (adult worms [5]; 48 h) was 0. The “eggs' number” value (adult worms [5]; 72 h) was 8, the “effect on worm pairing” value (adult worms [5]) was “no impact on worm pairing” and the viability at 72 h, 5 µM [6] was 89 ± 3%. It also gave a viability at 72 h, 10 µM [6] of 104 ± 12%, a viability at 72 h, 25 µM [6] of 99 ± 6% and a viability at 72 h, 50 µM [6] of 106 ± 17%. The IC50 at 72 h [6] was > 100 µM, the IC50 (adult worms [7]) was > 10 µM and the IC50 ([8]; 4 h) was > 20 µM. The IC50 ([8]; 24 h) was > 20 µM, the IC50 ([8]; 48 h) was > 20 µM and the IC50 ([8]; 72 h) was 4.3 µM. For the same compound, the Percentage of effect ([8]; 4 h, 1 μM) was 23.33%, the Percentage of effect ([8]; 4 h, 10 μM) was 33.33% and the Percentage of effect ([8]; 4 h, 20 μM) was 45.45%. It also gave a Percentage of effect ([8]; 24 h, 1 μM) of 24.14%, a Percentage of effect ([8]; 24 h, 10 μM) of 34.48% and a Percentage of effect ([8]; 24 h, 20 μM) of 48.08%. It also gave a Percentage of effect ([8]; 48 h, 1 μM) of 34.62%, a Percentage of effect ([8]; 48 h, 10 μM) of 42.31% and a Percentage of effect ([8]; 48 h, 20 μM) of 50%. For the same compound, the Percentage of effect ([8]; 72 h, 1 μM) was 40.96%, the Percentage of effect ([8]; 72 h, 10 μM) was 44.55% and the Percentage of effect ([8]; 72 h, 20 μM) was 70.83%. The ΔTm [2] was “+9.5 °C”, the “Percentage of reduction … 72 h” value ([9]; 1 μM) was 30.2 ± 1.9% and the “Percentage of reduction … 72 h” value ([9]; 10 μM) was 87.5 ± 4.2%. The “Percentage of reduction … 72 h” value ([9]; 20 μM) was 100 ± 0.0%, the IC50 [9] was 1.72 µM and the Percentage of effect (NTS; 4 h, 10 μM) was 21.15%. For the same compound, the Percentage of effect (NTS; 4 h, 20 μM) was 38.46%, the Percentage of effect (NTS; 24 h, 10 μM) was 50% and the Percentage of effect (NTS; 24 h, 20 μM) was 57.14%. The Percentage of effect (NTS; 48 h, 10 μM) was 51.02%, the Percentage of effect (NTS; 48 h, 20 μM) was 91.84% and the Percentage of effect (NTS; 72 h, 10 μM) was 71.43%. The Percentage of effect (NTS; 72 h, 20 μM) was 100%, the IC50 (NTS; 4 h) was > 20 µM and the IC50 (NTS; 24 h) was 10 µM. The IC50 (NTS; 48 h) was 9.9 µM, the IC50 (NTS; 72 h) was 9.3 µM and the IC50 [3] was 0.12 ± 0.02 µM.
With `Cl.NC1CC1c1cccc(NC(=O)c2ccc(C#CC3CC3)cc2)c1` (centres unmarked) [Compound 22, N-(3-(2-Aminocyclopropyl)phenyl)-4-(cyclopropylethynyl)benzamide Hydrochloride] the “bleaching of the flavin cofactor” value [1] was “no bleaching”, the “thermal shift compared to the control” value [2] was “no thermal shift” and the ΔTm [2] was 0 °C.
